Results on six molecules are retold here after patent publication US7632679B2, “Systems and methods for screening for modulators of neural differentiation” (The Trustees of Columbia University in the City of New York, priority 2002, dated 2009).

The subject of series [1] is ES-cell-derived embryoid bodies. The series is described as follows: HB9+ motor neuron generation in embryoid bodies. The class given is cell-based, mouse. The procedure:
(§1) For some experiments, ES cells were grown on a monolayer of stromal PA6 cell line (Riken Cell Bank, Japan), in DFK5 medium alone, or supplemented with 2 μM RA, as described (Kawasaki et al., Induction of midbrain dopaminergic neurons from ES cells by stromal cell-derived inducing activity. Neuron, 28:31-40, 2000).
To begin to examine the capacity of mouse ES cells to generate motor neurons, the inventors grew mouse ES cells in aggregate culture for 2 days, a procedure that results in the formation of embryoid bodies (EBs) (Bain et al., Embryonic stem cells express neuronal properties in vitro. Dev. Biol., 168:342-57, 1995).

The subject of series [2] is neural progenitor cells in embryoid bodies. The series is described as follows: Progenitor transcription factor expression (ventralization) in RA-exposed embryoid bodies. The class given is cell-based, mouse.
The test system of another series is HBG3 ES cells. The series is described as follows: eGFP+ motor neuron generation in HBG3 ES-cell-derived embryoid bodies. The class given is cell-based, mouse. The procedure: as §1
A transgenic mouse line was established by pronucleus injection of a construct that used a ˜9 kB fragment comprising the 5′ upstream region of the murine HB9 gene (Arber et al., Requirement for the homeobox gene Hb9 in the consolidation of motor neuron identity. Neuron, 23:659-764, 1999), followed by a 5′ splice substrate (Choi et al., A generic intron increases gene expression in transgenic mice. Mol. Cell Biol., 11:3070-74, 1991), an eGFP gene, and a bovine growth hormone polyadenylation signal. The ˜9 kB Not1 fragment of HB9 is sufficient to direct eGFP expression to develop motor neurons in transgenic embryos examined from E9.5 to P10. In one transgenic line (mHB9-Gfp1b), the pattern of eGFP expression corresponded closely to the profile of expression of endogenous HB9. ES-cell lines were derived from mHB9-Gfp1b heterozygous blastocysts, as previously described (Abbondanzo et al., Derivation of embryonic stem cell lines. Methods Enzymol., 225:803-23, 1993). One selected line (HBG3) was tested for its capacity to integrate into developing mouse blastocysts and its capacity for germline transmission.
HBG3 ES-cell embryoid bodies were dissociated using a papain dissociation system (Worthington Biochemical Corp.). Cells expressing high levels of eGFP were sorted from the cell suspension with a Beckman-Coulter Altra flow cytometer, based on their eGFP fluorescence and forward light scatter using the gate indicated in the plot. Typically, 20-30% of input cells expressed high levels of GFP. The analysis established that this eGFP-Hi cell group constituted a >95% pure population of motor neurons. The yield of a typical FACS sort is 3000-5000 GFP-Hi cells per EB.

The test system of series [3] is ES cells / embryoid bodies. The series is described as follows: Suppression and induction of a neural character in differentiating embryoid bodies. The class given is cell-based, mouse. The conditions noted are these: for acquisition of neural precursor cell fate (Sox1): 4 days of differentiation, factor present for entire culture (Wnt3a conditioned medium 1×, BMP4 10 ng/ml, SU5402 5 μM); for neural precursor or post-mitotic neural cells: EBs differentiated 4 days with RA+Wnt3a or RA+BMP4. How it is done:
(§2) Medium was replaced every 2 days. Medium was supplemented by factors, at the start of ES-cell aggregation/differentiation (day 0) or on day 2, as indicated below, and cultured for a further 2-8 days.
(§3) Soluble Wnt3a and control-conditioned medium (Wilson et al., The status of Wnt signaling regulates neural and epidermal fates in the chick embryo. Nature, 411:325-30, 2001) were prepared, as previously described (Shibamoto et al., Cytoskeletal reorganization by soluble Wnt-3a protein signalling. Genes Cells, 3:659-70, 1998). Soluble Frizzled 8 (mFrz8CRD-IgG) and control-conditioned medium were prepared by transfecting HEK-293 cells with mfz8CRD-IgG (Hsieh et al., Biochemical characterization of Wnt-frizzled interactions using a soluble, biologically active vertebrate Wnt protein. Proc. Natl. Acad. Sci. USA, 96:3546-51, 1999) or LacZ reporter construct (Wilson et al., An early requirement for FGF signalling in the acquisition of neural cell fate in the chick embryo. Curr. Biol., 10:421-29, 2000). The transfected HEK-293 cells were then incubated for 48 h in OPTI-MEM medium. mFrzCRD-1gG conditioned medium was used undiluted.
Immunohistochemical localization of proteins was performed, as previously described (Yamada et al., Control of cell pattern in the developing nervous system: polarizing activity of the floor plate and notochord. Cell, 64:635-47, 1991). Neural precursor (neural progenitor) cells were delineated by expression of rabbit anti-Sox1. Post-mitotic neurons were delineated using mouse anti-Pax6. Otx1/Otx2 and Eng1, which are co-expressed at the midbrain/hindbrain boundary, were used to define cells of a midbrain-like character (Davis and Joyner, Expression patterns of the homeo box-containing genes En-1 and En-2 and the proto-oncogene int-1 diverge during mouse development. Genes Dev., 2:1736-44, 1988). Hox C6 and HoxC8 were used to delineate cells of a spinal-cord character. Krox20 (Covance) is expressed in hindbrain cells, in regions fated to give rise to rhombomeres 3 and 5; thus, co-expression of Sox1 and Otx1/Otx2, in the absence of Eng1 or Krox 20, was used to delineate an anterior/prosencephalic character (Lemaire and Kessel, Gastrulation and homeobox genes in chick embryos. Mech. Dev., 67:3-16, 1997).
In control experiments, 15-30% of cells attained a neural-cell fate when subjected to aggregation in differentiation medium. To suppress a neural-cell fate, medium was supplemented by Wnt3a conditioned medium (1×), BMP4 (10 ng/ml), or SU5402 (5 μM), at the start of ES-cell aggregation (day 0). To induce a neural-cell fate, medium was supplemented by mFRZ8CRD conditioned medium (2×) at the start of ES-cell aggregation (day 0). ES cells were differentiated for 4-8 days.

Series [4] concerns ES-cell-derived neural precursor cells. The series is described as follows: Caudalization of a neural character by Wnt3a. The conditions noted are these: Wnt3a at different concentrations and/or times; 2 days differentiation medium, then 2 days with Wnt3a. The class given is cell-based, mouse. The procedure:
as §2, §3
Immunohistochemical localization of proteins was performed, as previously described (Yamada et al., Control of cell pattern in the developing nervous system: polarizing activity of the floor plate and notochord. Cell, 64:635-47, 1991). […]

Another series has as its system mouse ES cells. The series is described as follows: Directed differentiation of ES cells into LH2-positive dorsal spinal neurons. The class given is cell-based. The conditions noted are these: embryoid bodies grown in the presence of BMP7. How it is done:
Embryonic stem (ES) cells were grown on mouse embryonic fibroblasts in ES-cell medium, as described in Example 1. ES-cell colonies were partially dissociated with 0.05% trypsin/EDTA, after 2 days, and cultured in DFNB medium (neurobasal medium (Gibco) mixed with DMEM (Specialty Media, EmbryoMax) and F12 (Gibco), in a 2:1:1 ratio, supplemented with 1×B27 supplement, 0.1 mM 2-mercaptoethanol (Sigma), 2 mM L-glutamine (Gibco), and 1× penicillin/streptomycin (Gibco)) (˜10^5 cells/ml).
After 2 days in culture, embryoid bodies (EBs) were plated in DFNB medium supplemented with retinoic acid (100 nM to 1 μM) (Sigma). After 1-2 days in culture, in the presence of retinoic acid, EBs were collected, rinsed 2-3 times with PBS, and plated in DFNB medium supplemented with human BMP4 (10 ng/ml; R&D systems) or BMP7 (20 ng/ml). After an additional 4 days in culture, cells were fixed using 4% paraformaldehyde, and processed for immunocytochemistry.

[5] abbreviates: RA-treated EBs, 10 nM Hh-Ag1.3, 3 days.

Entries after “also recorded” stand apart in the source; their conditions may differ.

On to `CC1=C(/C=C/C(C)=C/C=C/C(C)=C/C(=O)O)C(C)(C)CCC1` [RA, retinoic acid], for which the “HB9+ neurons per section” value in series [1] (RA-exposed EBs grown alone for 5 days) is 7±2 HB9^+ neurons/section.

`CNC1CCC(N(Cc2cccc(-c3ccncc3)c2)C(=O)c2sc3ccccc3c2Cl)CC1` (centres unmarked) [Hh-Ag1.3]: the “HB9+ neurons in EBs” value in series [1] (Hh-Ag1.3 (1 μM) for 5 days without RA) is given as “No HB9^+ neurons were generated; also recorded: did not contain HB9^+ neurons”. For the same molecule, the “HB9+ neurons per section” value in series [1] (RA-treated EBs plus SHh (300 nM) or Hh-Ag1.3 (1 μM)) is 509±57 HB9^+ neurons/section. For the same molecule, the “HB9+ neurons per EB” value in series [1] (RA-treated EBs plus SHh (300 nM) or Hh-Ag1.3 (1 μM), ~10-15 sections per EB) worked out at 5000 HB9^+ neurons. Also, the “BrdU incorporation by Olig2+ cells” value in series [2] (Hh-Ag1.3-exposed EBs, 3 days with RA) was “incorporated BrdU”. For the same molecule, in series [2] (setting [5]), the “Nkx6.1+ and Olig2+ cells” value is “a few Nkx6.1^+ and Olig2^+ cells were detected”; the Pax7 expression entry is listed as “completely repressed”; the “number of Dbx1+ cells” value is “reduced”; the “number of Pax6+ and Irx3+ cells” value is recorded as “increased”. In series [2] (RA-treated EBs, 1 μM Hh-Ag1.3), the Dbx1 expression entry is recorded as “virtually eliminated”; the “HNF3β+ floor plate cells” value is listed as “no HNF3β^+ floor plate cells were detected”; the “Nkx2.2+ cells” value is listed as “a few Nkx2.2^+ cells were also induced”; the “number of Irx3+ and Pax6+ cells” value was “markedly reduced”. Also, the “number of Nkx6+ and Olig2+ cells” value in series [2] (RA-treated EBs, 1 μM Hh-Ag1.3) was “large increase”. Also, the “toxicity for cells differentiating in EBs” value in the series with HBG3 ES cells (10 μM Hh-Ag1.3) is reported as “became toxic for cells differentiating in EBs”. The “generation of eGFP+/HB9+ motor neurons” value with HBG3 ES cells (Hh-Ag1.3 (1 μM) in the absence of RA) is “failed to generate eGFP^+/HB9^+ motor neurons”. For the same molecule, in the series with HBG3 ES cells (RA and 1 μM Hh-Ag1.3), the “eGFP+/HB9+ motor neurons as share of total cells in EBs” value is 20-30%. Besides, the “cells in EBs expressing eGFP” value in the series on HBG3 ES cells (RA plus 2.2 μM Hh-Ag1.3, 5 days) is on record as 22.5%. In addition, the “number of eGFP+/HB9+ motor neurons” value in the series on HBG3 ES cells (RA-exposed HBG3 EBs plus Hh-Ag1.3, concentration-dependent (0 to 2.2 μM)) is “increased”.

As to `Cc1c[nH]c(/C=C2\C(=O)Nc3ccccc32)c1CCC(=O)O` [SU5402], the “acquisition of neural precursor cell fate (Sox1)” value (“acquisition” for short) in series [3] was “could not acquire a neural precursor cell fate”.

As for Wnt3a, in series [3], the “acquisition” value is on record as “could not acquire a neural precursor cell fate” and the “neural precursor or post-mitotic neural cells” value is “no neural precursor or post-mitotic neural cells were present”. Moreover, the “caudalization of neural cells” value in series [4] was “progressively caudalized to hindbrain and spinal cord character”.

B1: BMP4: human BMP4 protein (bone morphogenetic protein), R&D systems (protein, UniProt P12644 293-408, looked up)
Bone morphogenetic protein 4: SPKHHSQRARKKNKNCRRHSLYVDFSDVGWNDWIVAPPGYQAFYCHGDCPFPLADHLNSTNHAIVQTLVNSVNSSIPKACCVPTELSAISMLYLDEYDKVVLKNYQEMVVEGCGCR
Turning to B1, in series [3], the “acquisition” value is “could not acquire a neural precursor cell fate” and the “neural precursor or post-mitotic neural cells” value is reported as “no neural precursor or post-mitotic neural cells were present”.

B2: BMP7: bone morphogenetic protein 7 (protein, UniProt P18075 293-431, looked up)
Bone morphogenetic protein 7: STGSKQRSQNRSKTPKNQEALRMANVAENSSSDQRQACKKHELYVSFRDLGWQDWIIAPEGYAAYYCEGECAFPLNSYMNATNHAIVQTLVHFINPETVPKPCCAPTQLNAISVLYFDDSSNVILKKYRNMVVRACGCH
For B2, in the series with mouse ES cells, the “dorsal spinal neurons (LH2) and their progenitors (Math1)” value is “numerous dorsal neurons and their progenitors were observed”.
